The record followed here is patent US5591741A, “Fungicidal spiroheterocyclic derivatives” (American Cyanamid Company, priority 1993, dated 1997).

The subject of one test is Venturia inaequalis. Briefly: Activity against apple scab in-vitro (VII). It is filed as cell-based. Particulars: 10 ppm, 10 days, 20° C., mycelial growth. Summed up:
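Compound in acetone was tested at 10 ppm final in half-strength Potato Dextrose Broth inoculated with V. inaequalis mycelial fragments and spores at 5×10^4 propagules/ml. After 10 days at 20° C, mycelial growth was rated against untreated or diluent controls.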

The test system of another test is Leptosphaeria nodorum. Briefly: Activity against wheat leafspot (LN). It is filed as in vivo. Particulars: direct therapeutic foliar spray, 600 ppm, 6-8 days. Summed up:
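Wheat cv Norman at single-leaf stage spray-inoculated with 1.5×10^6 conidia/ml, held 24 h at high humidity, then sprayed therapeutically with test compound at 600 ppm. Kept 6-8 days at 22° C, 70% humidity; lesion density per leaf rated against untreated or diluent-sprayed controls.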

The test system of test [1] is Pseudocercosporella herpotrichoides. Briefly: Activity against wheat eyespot in-vitro (PHI). It is filed as cell-based. The settings on record: 10 ppm, 10 days, 20° C., mycelial growth. In a few lines: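 P. herpotrichoides mycelial fragments (5×10^4/ml) grown in half-strength PDB with compound at 10 ppm final, added from acetone. Incubated 10 days at 20 °C; mycelial growth rated against untreated or diluent controls.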

For a further test, the system named is Phytophthora infestans. It is filed as in vivo. Particulars: tomato, direct protectant foliar spray.
For test [2], the system named is Erysiphe graminis f.sp. hordei. Briefly: Activity against barley powdery mildew, direct therapeutic (EGT). It is filed as in vivo. Particulars: direct therapeutic foliar spray, 600 ppm, up to 7 days. In a few lines:
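Barley seedlings (cv. Golden Promise, single-leaf stage) were dusted with mildew conidia one day before a therapeutic foliar spray of 600 ppm compound. Plants were kept at 18 °C and 40% humidity for up to 7 days, and sporulating leaf area was rated against untreated or diluent-sprayed controls.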

A further test deals with Alternaria solani. Briefly: Activity against tomato early blight (AS). Particulars: Table VI; tomato seedlings, contact prophylactic foliar spray, 4 days. It is filed as in vivo. Summed up: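 Foliar contact prophylactic spray on tomato seedlings (cv Outdoor Girl, second true leaf expanded) in acetone/water 50:50 with 0.04% Tween 20; 24 h at 20° C, 40% R.H., then inoculation with 10^4 spores/ml A. solani conidia. Kept moist at 21° C; lesion cover rated 4 days post-inoculation against untreated or diluent-sprayed controls.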

Another test relates to Plasmopara viticola. Briefly: Antisporulant activity against vine downy mildew (PVA). It is filed as in vivo. The settings on record: vine leaves, antisporulant foliar spray, 600 ppm, 750 l/ha. In a few lines:
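Cabernet Sauvignon vines (~8 cm) inoculated on lower leaf surfaces with 5×10^4 zoosporangia/ml, held 24 h at 21° C high humidity then 24 h glasshouse. Infected leaves sprayed underside with 600 ppm compound in 1:1 water/acetone, 0.04% Tween 20, 750 l/ha; 96 h glasshouse, 24 h humidity. Sporulating leaf area rated versus control.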

Another test relates to Pyricularia oryzae. It is filed as in vivo. Particulars: rice seedlings, direct therapeutic foliar spray, 600 ppm, 4-5 days.
The test system of test [3] is Erysiphe graminis f.sp. hordei. Briefly: Direct protectant activity against barley powdery mildew (EGP). It is filed as in vivo. Particulars: direct protectant foliar spray, 8 days. Summed up: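 Barley seedlings (cv Golden Promise, single-leaf stage) were foliar-sprayed, held 24 h at 18 °C/40% RH, then dusted with mildew conidia. After 8 days at 18 °C/40% RH, sporulating leaf area was scored as a rating against untreated or diluent-sprayed controls.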

A further test deals with Rhizoctonia solani. Briefly: Activity against Rhizoctonia in-vitro (RSI). It is filed as cell-based. Particulars: 10 ppm, 10 days, 20° C., mycelial growth. Summed up: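 R. solani mycelial fragments (5×10^4/ml) in half-strength Potato Dextrose Broth with compound added from acetone to 10 ppm final. Mycelial growth assessed after 10 days at 20° C, rated against untreated or diluent control.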

Another test relates to Botrytis cinerea. Briefly: Direct protectant activity against broad bean grey mould (BCB). It is filed as in vivo. Particulars: direct protectant foliar spray, 600 ppm, 4 days. Summed up: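 Broad bean plants (cv The Sutton, two leaf pairs) sprayed on upper leaf surfaces at 600 ppm, then inoculated 24 h later with 10^6 conidia/ml. Kept 4 days at 22 °C, high humidity; disease control rated from % leaf area with lesions against untreated or diluent controls.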

For the compound `CCN(CC1CCCCC1)C1COC2(CCC(C(C)(C)C)CC2)C1` (stereo not shown) [Compound 92], the “disease control rating VII” value in the test with Venturia inaequalis is 0 (less than 50% disease control). Moreover, the “disease control rating LN” value with Leptosphaeria nodorum is recorded as 0 (less than 50% disease control). Besides, in [1], the “disease control rating PHI” value is given as 0 (less than 50% disease control). Moreover, the “disease control rating PIP” value in the test with Phytophthora infestans is listed as 2 (greater than 80% disease control). Besides, the “disease control rating EGT” value in test [2] was 2 (greater than 80% disease control). The “disease control rating AS” value with Alternaria solani is listed as 0 (less than 50% disease control). Besides, the “disease control rating PVA” value in the test with Plasmopara viticola is listed as 0 (less than 50% disease control). Besides, in the test on Pyricularia oryzae, the “disease control rating PO” value was 0 (less than 50% disease control). For the same compound, in test [3], the “disease control rating EGP” value is 2 (greater than 80% disease control). In addition, the “disease control rating RSI” value in the test on Rhizoctonia solani is reported as 1 (about 50-80% disease control). Further, the “disease control rating BCB” value in the test on Botrytis cinerea is on record as 2 (greater than 80% disease control).

Take `CCCN(CC1CCCCC1)C1COC2(CCC(C(C)(C)C)CC2)C1` (stereo not shown) [Compound 93]: the “disease control rating VII” value in the test on Venturia inaequalis is recorded as 0 (less than 50% disease control). In addition, the “disease control rating LN” value in the test on Leptosphaeria nodorum is recorded as 0 (less than 50% disease control). Besides, in test [1], the “disease control rating PHI” value is recorded as 0 (less than 50% disease control). In the test with Phytophthora infestans, the “disease control rating PIP” value was 2 (greater than 80% disease control). Besides, in test [2], the “disease control rating EGT” value is given as 2 (greater than 80% disease control). Besides, the “disease control rating AS” value with Alternaria solani is reported as 0 (less than 50% disease control). For the same compound, the “disease control rating PVA” value with Plasmopara viticola is given as 0 (less than 50% disease control). Besides, in the test with Pyricularia oryzae, the “disease control rating PO” value was 0 (less than 50% disease control). For the same compound, the “disease control rating EGP” value in test [3] was 2 (greater than 80% disease control). Besides, the “disease control rating RSI” value with Rhizoctonia solani is recorded as 1 (about 50-80% disease control). In addition, the “disease control rating BCB” value in the test on Botrytis cinerea was 0 (less than 50% disease control).

As to `CCC(CC)N(C)C1COC2(CCC(C(C)(C)C)CC2)C1` (stereo not shown) [Compound 94], the “disease control rating VII” value with Venturia inaequalis is listed as 0 (less than 50% disease control). In the test on Leptosphaeria nodorum, the “disease control rating LN” value was 1 (about 50-80% disease control). In addition, the “disease control rating PHI” value in [1] is listed as 0 (less than 50% disease control). The “disease control rating PIP” value in the test with Phytophthora infestans is 0 (less than 50% disease control). Besides, the “disease control rating EGT” value in [2] is given as 2 (greater than 80% disease control). Further, the “disease control rating AS” value with Alternaria solani was 0 (less than 50% disease control). In the test with Plasmopara viticola, the “disease control rating PVA” value is given as 0 (less than 50% disease control). In the test with Pyricularia oryzae, the “disease control rating PO” value is reported as 0 (less than 50% disease control). Besides, the “disease control rating EGP” value in [3] was 2 (greater than 80% disease control). In addition, the “disease control rating RSI” value in the test on Rhizoctonia solani was 1 (about 50-80% disease control). Besides, in the test on Botrytis cinerea, the “disease control rating BCB” value was 0 (less than 50% disease control).

As to `CCC(CC)N(CC)C1COC2(CCC(C(C)(C)C)CC2)C1` (stereo not shown) [Compound 95], in the test on Venturia inaequalis, the “disease control rating VII” value is 0 (less than 50% disease control). In the test on Leptosphaeria nodorum, the “disease control rating LN” value is given as 0 (less than 50% disease control). Besides, the “disease control rating PHI” value in test [1] is 0 (less than 50% disease control). In addition, in the test with Phytophthora infestans, the “disease control rating PIP” value is recorded as 0 (less than 50% disease control). In [2], the “disease control rating EGT” value is given as 2 (greater than 80% disease control). In the test with Alternaria solani, the “disease control rating AS” value is on record as 0 (less than 50% disease control). Further, in the test with Plasmopara viticola, the “disease control rating PVA” value is on record as 0 (less than 50% disease control). In addition, in the test with Pyricularia oryzae, the “disease control rating PO” value is 0 (less than 50% disease control). Moreover, in test [3], the “disease control rating EGP” value is recorded as 2 (greater than 80% disease control). For the same compound, the “disease control rating RSI” value with Rhizoctonia solani is 1 (about 50-80% disease control). In the test with Botrytis cinerea, the “disease control rating BCB” value is 0 (less than 50% disease control).

`CCCN(C(CC)CC)C1COC2(CCC(C(C)(C)C)CC2)C1` (stereo not shown) [Compound 96]: in the test on Venturia inaequalis, the “disease control rating VII” value was 1 (about 50-80% disease control). Moreover, in the test on Leptosphaeria nodorum, the “disease control rating LN” value was 0 (less than 50% disease control). For the same compound, in [1], the “disease control rating PHI” value is reported as 0 (less than 50% disease control). For the same compound, the “disease control rating PIP” value in the test with Phytophthora infestans is recorded as 0 (less than 50% disease control). Moreover, the “disease control rating EGT” value in [2] is reported as 2 (greater than 80% disease control). Further, the “disease control rating AS” value in the test with Alternaria solani is on record as 0 (less than 50% disease control). Also, the “disease control rating PVA” value in the test with Plasmopara viticola was 0 (less than 50% disease control). Besides, in the test with Pyricularia oryzae, the “disease control rating PO” value is listed as 0 (less than 50% disease control). Besides, the “disease control rating EGP” value in test [3] is listed as 2 (greater than 80% disease control). In the test on Rhizoctonia solani, the “disease control rating RSI” value was 1 (about 50-80% disease control). Also, the “disease control rating BCB” value with Botrytis cinerea is reported as 0 (less than 50% disease control).

For the compound `CC(C)(C)C1CCC2(CC1)CC(N)CO2` (stereo not shown) [Compound 97, 3-amino-8-t-butyl-1-oxaspiro(4,5)-decane], the “disease control rating VII” value with Venturia inaequalis is 0 (less than 50% disease control). In addition, the “disease control rating LN” value in the test on Leptosphaeria nodorum is 0 (less than 50% disease control). Also, the “disease control rating PHI” value in test [1] was 0 (less than 50% disease control). For the same compound, the “disease control rating PIP” value with Phytophthora infestans is listed as 2 (greater than 80% disease control). In addition, in [2], the “disease control rating EGT” value is listed as 2 (greater than 80% disease control). In addition, the “disease control rating AS” value in the test on Alternaria solani is 0 (less than 50% disease control). For the same compound, the “disease control rating PVA” value in the test with Plasmopara viticola is recorded as 0 (less than 50% disease control). In the test with Pyricularia oryzae, the “disease control rating PO” value is recorded as 0 (less than 50% disease control). Also, in test [3], the “disease control rating EGP” value is recorded as 2 (greater than 80% disease control). Moreover, the “disease control rating RSI” value with Rhizoctonia solani was 0 (less than 50% disease control). Moreover, the “disease control rating BCB” value in the test on Botrytis cinerea is 0 (less than 50% disease control).

On to `CC(C)(C)C1CCC2(CC1)CC(NC1CCC3CCCCC3C1)CO2` (stereo not shown) [Compound 98], for which, in the test with Venturia inaequalis, the “disease control rating VII” value is on record as 2 (greater than 80% disease control). The “disease control rating LN” value with Leptosphaeria nodorum is reported as 0 (less than 50% disease control). Further, in [1], the “disease control rating PHI” value is listed as 0 (less than 50% disease control). Also, the “disease control rating PIP” value in the test on Phytophthora infestans is 2 (greater than 80% disease control). In addition, in test [2], the “disease control rating EGT” value is recorded as 2 (greater than 80% disease control). Further, the “disease control rating AS” value with Alternaria solani is 0 (less than 50% disease control). Further, the “disease control rating PVA” value with Plasmopara viticola is 0 (less than 50% disease control). The “disease control rating PO” value in the test on Pyricularia oryzae is listed as 0 (less than 50% disease control). Moreover, the “disease control rating EGP” value in test [3] is reported as 2 (greater than 80% disease control). Moreover, the “disease control rating RSI” value with Rhizoctonia solani is given as 1 (about 50-80% disease control). For the same compound, in the test on Botrytis cinerea, the “disease control rating BCB” value is 2 (greater than 80% disease control).

Regarding `CCCC(CCC)NC1COC2(CCC(C(C)(C)C)CC2)C1` (stereo not shown) [Compound 99, 3-Hept-4-ylamino-8-t-butyl-1-oxaspiro(4,5)-decane], the “disease control rating VII” value with Venturia inaequalis is 2 (greater than 80% disease control). Further, the “disease control rating LN” value with Leptosphaeria nodorum was 0 (less than 50% disease control). Besides, in test [1], the “disease control rating PHI” value is given as 0 (less than 50% disease control). Moreover, in the test with Phytophthora infestans, the “disease control rating PIP” value is 2 (greater than 80% disease control). The “disease control rating EGT” value in test [2] is given as 2 (greater than 80% disease control). For the same compound, the “disease control rating AS” value in the test with Alternaria solani is reported as 0 (less than 50% disease control). Further, in the test on Plasmopara viticola, the “disease control rating PVA” value was 0 (less than 50% disease control). In addition, in the test with Pyricularia oryzae, the “disease control rating PO” value is on record as 0 (less than 50% disease control). The “disease control rating EGP” value in test [3] is recorded as 2 (greater than 80% disease control). Moreover, the “disease control rating RSI” value in the test on Rhizoctonia solani was 0 (less than 50% disease control). Further, the “disease control rating BCB” value with Botrytis cinerea is given as 0 (less than 50% disease control).
